Where two headings read alike, the source gives them in different places.
How the values were obtained:
Format in all cases: cell-based
[1] = system: PD1-ss+10aa/Gaussia Luciferase; assay: Dox-Induced PD1-ss-Gluc Assay; conditions: 293FRT/TO cells, read-out: 24 hr Dox Inducible PD1ssGluc 293FRT/TO: Mean IC50
Method in brief: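 Stable cell line carrying PD1-ss+10aa/Gaussia luciferase cDNA under T-REx (doxycycline-inducible) control, plated the day before assay. Compound dilutions in DMSO/media containing doxycycline added and incubated at 37° C, 5% CO2. Undefined stereocentres: data refer to stereoisomer mixtures.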

[2] = system: TNFα-FL/Gaussia Luciferase; assay: Dox Induced TNFα-FL-Gluc Assay; conditions: 293FRT/TO cells, read-out: 24 hr Dox Inducible TNFaFLGluc 293FRT/TO: Mean IC50
Method in brief: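 A stable T-REx cell line carrying doxycycline-inducible TNFα-FL/Gaussia luciferase was plated the day before assay. Compound dilutions in DMSO/media containing doxycycline were then added and incubated at 37° C, 5% CO2.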

[3] = system: HER3-ss+4aa/Gaussia Luciferase; assay: Dox-Induced Her3-ss-Gluc Assay; conditions: 293FRT/TO cells, read-out: 24 hr Dox Inducible Her3(ss + 4)Gluc 293FRT/TO: Mean IC50
Method in brief: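 Stable T-REx cell line carrying a doxycycline-regulated HER3-ss+4aa/Gaussia luciferase insert, plated the day before assay. Compound dilutions in DMSO/media with doxycycline added, then incubated at 37° C., 5% CO2. Stereoisomer mixtures tested where stereochemistry is not drawn.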

[4] = system: IL-2-FL/Gaussia Luciferase; assay: Dox Induced IL2-FL-Gluc Assay; conditions: 293FRT/TO cells, read-out: 24 hr Dox Inducible IL2FLGIuc 293FRT/TO: Mean IC50
Method in brief: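 Stable T-REx cell line expressing doxycycline-inducible IL-2-FL/Gaussia luciferase cDNA, plated the day before assay. Compound dilutions in DMSO/media containing doxycycline added and incubated at 37° C., 5% CO2. Unspecified stereochemistry means data refer to a stereoisomer mixture.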

[5] = system: human multiple myeloma cell line NCI-H929; assay: H929 Cell Viability Assay; conditions: 48 hr, NCI-H929 cells, Celltiter-Glo, read-out: 48 hr H929 Viability Celltiter-Glo: Mean EC50
Procedure: Plates were incubated at 37° C., 5% CO2 for 48 hours. After 48 hours, Celltiter-Glo® (Promega) was added to each well and luciferase signal was quantified using Tecan Infinite M1000 Pro for cell viability determination.
For chemical structures that include one or more stereoisomers, but are illustrated without indicating stereochemistry, the assay data refers to a mixture of stereoisomers.

[6] = system: human multiple myeloma cell line U266B1; assay: U266 Cell Viability Assay; conditions: U-266, 48 hr, U266B1 cells, Celltiter-Glo, read-out: 48 hr U266 Viability Celltiter-Glo: Mean EC50
Method in brief: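 U266B1 myeloma cells treated with compound dilutions in DMSO/media for 48 h at 37 °C, 5% CO2. Viability read by CellTiter-Glo luminescence. Stereochemically undefined structures were tested as stereoisomer mixtures.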

[7] = 24 hr doxycycline induction, Gaussia luciferase signal

Row | Compound | IC50 [1, 7] [µM] | IC50 [2, 7] [µM] | IC50 [3, 7] [µM] | IC50 [4, 7] [µM] | EC50 [5] [µM] | EC50 [6] [µM] | IC50 ([1]; 24 hr, doxycycline-induced) [µM] | IC50 ([2]; 24 hr, doxycycline-induced) [µM] | IC50 ([3]; 24 hr, doxycycline-induced) [µM] | IC50 ([4]; 24 hr, doxycycline-induced) [µM]
1 | CC(C)OC(C)(C)c1csc(NC(=O)c2cccn2[C@H](C)c2ccncc2)n1 [Compound A49, (R)-N-(4-(2-isopropoxypropan-2-yl)thiazol-2-yl)-1-(1-(pyridin-4-yl)ethyl)-1H-pyrrole-2-carboxamide] | 1.21 | 23.6 | 2.58 | 1.89 | > 25 | > 25 | – | – | – | –
2 | C[C@@H](OC(C)(C)c1csc(NC(=O)c2cccn2Cc2ccncc2)n1)c1ccccc1 [Compound A18, (R)-N-(4-(2-(1-phenylethoxy)propan-2-yl)thiazol-2-yl)-1-(pyridin-4-ylmethyl)-1H-pyrrole-2-carboxamide] | 0.226 | 1.35 | 0.461 | 0.718 | 15.1 | > 25 | – | – | – | –
3 | O=C(Nc1nc(/C=C/c2ccc3c(n2)OCO3)cs1)c1cccn1Cc1ccncc1 [Compound A272] | 0.261 | > 25 | 1.72 | > 25 | > 25 | > 25 | – | – | – | –
4 | Cc1ccc(S(=O)(=O)CCOC(C)(C)c2csc(NC(=O)c3cccn3Cc3ccncc3)n2)cc1 [Compound B3, 1-(pyridin-4-ylmethyl)-N-(4-(2-(2-tosylethoxy)propan-2-yl)thiazol-2-yl)-1H-pyrrole-2-carboxamide] | – | – | – | – | > 25 | > 25 | 2.84 | > 25 | 4.24 | 2.93
5 | O=C(Nc1nc([C@H]2CC[C@@H](c3ccccc3)C2)cs1)c1cccn1Cc1ccncc1 (stereo in doubt) [Compound A305, N-(4-((1S,3R)-3-phenylcyclopentyl)thiazol-2-yl)-1-(pyridin-4-ylmethyl)-1H-pyrrole-2-carboxamide] | – | – | – | – | 12.4 | > 25 | 0.196 | 2.18 | 0.414 | 0.657
6 | CC(C)(OCC1CCCCO1)c1csc(NC(=O)c2cccn2Cc2ccncc2)n1 (stereo not drawn) [Compound A39, 1-(pyridin-4-ylmethyl)-N-(4-(2-((tetrahydro-2H-pyran-2-yl)methoxy)propan-2-yl)thiazol-2-yl)-1H-pyrrole-2-carboxamide] | 0.723 | 13.1 | 1.49 | 1.34 | > 25 | > 25 | – | – | – | –
7 | O=C(Nc1nc([C@@H]2CCC(=O)N2Cc2ccccc2)cs1)c1cccn1Cc1ccncc1 [Compound A320] | – | – | – | – | > 25 | > 25 | 10.4 | > 25 | > 25 | > 25
8 | CC(C)O[C@@H]1CC(c2csc(NC(=O)c3cccn3Cc3ccncc3)n2)N(c2ccccc2)C1 (stereo partly drawn) [Compound A346] | – | – | – | – | 0.972 | > 25 | 0.017 | 0.092 | 0.022 | 0.02
9 | CC(C)OC(C)(C)c1csc(NC(=O)c2cc(C(N)=O)cn2Cc2ccncc2)n1 [Compound A109, N2-(4-(2-isopropoxypropan-2-yl)thiazol-2-yl)-1-(pyridin-4-ylmethyl)-1H-pyrrole-2,4-dicarboxamide] | > 25 | > 25 | > 25 | > 25 | 19.5 | > 25 | – | – | – | –
10 | CC(C)OC(C)(C)c1csc(NC(=O)c2ccn(Cc3ccncc3)c2)n1 [Compound A122, N-(4-(2-isopropoxypropan-2-yl)thiazol-2-yl)-1-(pyridin-4-ylmethyl)-1H-pyrrole-3-carboxamide] | > 25 | > 25 | > 25 | > 25 | > 25 | > 25 | – | – | – | –
11 | CC(=O)N(C)c1ccc(Cn2cccc2C(=O)Nc2nc(C(C)(C)OC(C)C)cs2)cc1 [Compound A99, N-(4-(2-isopropoxypropan-2-yl)thiazol-2-yl)-1-(4-(N-methylacetamido)benzyl)-1H-pyrrole-2-carboxamide] | 19.9 | > 25 | > 25 | > 25 | > 25 | > 25 | – | – | – | –
12 | CC(C)OC(C)(C)c1csc(NC(=O)c2cccn2C/C=C/c2ccncc2)n1 [Compound A221, N-(4-(2-isopropoxypropan-2-yl)thiazol-2-yl)-1-(3-(pyridin-4-yl)allyl)-1H-pyrrole-2-carboxamide] | > 25 | > 25 | > 25 | > 25 | > 25 | > 25 | – | – | – | –
13 | CC(C)OC(C)(C)c1csc(NC(=O)c2cc(CO)cn2Cc2ccncc2)n1 [Compound A113, 4-(hydroxymethyl)-N-(4-(2-isopropoxypropan-2-yl)thiazol-2-yl)-1-(pyridin-4-ylmethyl)-1H-pyrrole-2-carboxamide] | > 25 | > 25 | > 25 | > 25 | > 25 | > 25 | – | – | – | –
14 | O=C(Nc1nc([C@@H]2CCCN2c2ccccc2)cs1)c1cccn1Cc1ccncc1 [Compound A276] | 0.287 | 2.47 | 0.859 | 1.5 | 19.4 | > 25.8 | – | – | – | –
15 | CC(OC(C)(C)c1csc(NC(=O)c2cccn2Cc2ccncc2)n1)c1ccccc1 (stereo not drawn) [Compound A3, N-(4-(2-(1-phenylethoxy)propan-2-yl)thiazol-2-yl)-1-(pyridin-4-ylmethyl)-1H-pyrrole-2-carboxamide] | 0.036 | 0.58 | 0.099 | 0.144 | 2.91 | > 25 | – | – | – | –

Next, values leading:

Row | IC50 [1, 7] [µM] | IC50 [2, 7] [µM] | IC50 [3, 7] [µM] | IC50 [4, 7] [µM] | EC50 [5] [µM] | EC50 [6] [µM] | IC50 ([1]; 24 hr, doxycycline-induced) [µM] | IC50 ([2]; 24 hr, doxycycline-induced) [µM] | IC50 ([3]; 24 hr, doxycycline-induced) [µM] | IC50 ([4]; 24 hr, doxycycline-induced) [µM] | Compound
16 | 2.47 | > 25 | 7.28 | 2.02 | > 25 | > 25 | – | – | – | – | Cc1ccc2nc(NC(=O)c3cccn3Cc3ccncc3)sc2c1 [Compound A73]
17 | 0.139 | 1.76 | 0.338 | 0.566 | 18.6 | > 25 | – | – | – | – | O=C(Nc1nc(/C=C\c2ccccc2)cs1)c1cccn1Cc1ccncc1 [Compound A12, 1-(pyridin-4-ylmethyl)-N-(4-styrylthiazol-2-yl)-1H-pyrrole-2-carboxamide]
18 | 0.462 | 3.95 | 0.752 | 0.401 | > 25 | > 25 | – | – | – | – | CC(C)OC(C)c1csc(NC(=O)c2cccn2Cc2ccncc2)n1 (stereo not drawn) [Compound A28, N-(4-(1-isopropoxyethyl)thiazol-2-yl)-1-(pyridin-4-ylmethyl)-1H-pyrrole-2-carboxamide]
19 | 0.131 | 3.03 | 0.315 | 0.779 | 17.1 | > 25 | – | – | – | – | O=C(Nc1nc(/C=C/Cc2ccccc2)cs1)c1cccn1Cc1ccncc1 [Compound A218, N-(4-(3-phenylprop-1-en-1-yl)thiazol-2-yl)-1-(pyridin-4-ylmethyl)-1H-pyrrole-2-carboxamide]
20 | 9.85 | > 25 | > 25 | > 25 | > 25 | > 25 | – | – | – | – | CC(C)(O)c1cnc(NC(=O)c2cccn2Cc2ccncc2)s1 [Compound A89]
21 | – | – | – | – | > 25 | > 25 | 1.89 | > 25 | 4.32 | 6.29 | O=C(Nc1ncc(Cl)s1)c1cccn1Cc1ccncc1 [Compound B1]
22 | 1.72 | > 25 | 10.6 | > 25 | > 25 | > 25 | – | – | – | – | Cc1csc(NC(=O)c2cccn2Cc2ccncc2)n1 [Compound A63, N-(4-methylthiazol-2-yl)-1-(pyridin-4-ylmethyl)-1H-pyrrole-2-carboxamide]
